Here are results for 23 compounds from US12441703B2, “Carboxamides as modulators of sodium channels” (VERTEX PHARMACEUTICALS INCORPORATED, priority 2019, dated 2025).

Like-named read-outs stand apart in the source and are kept apart here.

In this test the target is human NaV 1.8 (Homo sapiens, UniProt Q9Y5Y9). Kind of test: E-VIPR assay for detecting and measuring NaV inhibition properties. The format is cell-based. Conditions: HEK cells expressing truncated human NaV 1.8, read-out: IC50. An outline of the steps:
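HEK cells with truncated human NaV1.8 plus KIR2.1 BacMam, hexyl dye loaded 20 min, compound 30 min at room temperature, 11-point 3-fold series […], 0.625% DMSO, with or without human serum. E-VIPR biphasic stimulation at 10 Hz for 10 s; membrane-potential response read as normalized coumarin/oxonol ratio.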

[1] abbreviates: E-VIPR assay conducted in the presence of human serum.

For orientation: IC50 means the midpoint of a concentration-inhibition curve.

human NaV 1.8, sequence (Q9Y5Y9 whole entry, looked up, the tested form may be a part): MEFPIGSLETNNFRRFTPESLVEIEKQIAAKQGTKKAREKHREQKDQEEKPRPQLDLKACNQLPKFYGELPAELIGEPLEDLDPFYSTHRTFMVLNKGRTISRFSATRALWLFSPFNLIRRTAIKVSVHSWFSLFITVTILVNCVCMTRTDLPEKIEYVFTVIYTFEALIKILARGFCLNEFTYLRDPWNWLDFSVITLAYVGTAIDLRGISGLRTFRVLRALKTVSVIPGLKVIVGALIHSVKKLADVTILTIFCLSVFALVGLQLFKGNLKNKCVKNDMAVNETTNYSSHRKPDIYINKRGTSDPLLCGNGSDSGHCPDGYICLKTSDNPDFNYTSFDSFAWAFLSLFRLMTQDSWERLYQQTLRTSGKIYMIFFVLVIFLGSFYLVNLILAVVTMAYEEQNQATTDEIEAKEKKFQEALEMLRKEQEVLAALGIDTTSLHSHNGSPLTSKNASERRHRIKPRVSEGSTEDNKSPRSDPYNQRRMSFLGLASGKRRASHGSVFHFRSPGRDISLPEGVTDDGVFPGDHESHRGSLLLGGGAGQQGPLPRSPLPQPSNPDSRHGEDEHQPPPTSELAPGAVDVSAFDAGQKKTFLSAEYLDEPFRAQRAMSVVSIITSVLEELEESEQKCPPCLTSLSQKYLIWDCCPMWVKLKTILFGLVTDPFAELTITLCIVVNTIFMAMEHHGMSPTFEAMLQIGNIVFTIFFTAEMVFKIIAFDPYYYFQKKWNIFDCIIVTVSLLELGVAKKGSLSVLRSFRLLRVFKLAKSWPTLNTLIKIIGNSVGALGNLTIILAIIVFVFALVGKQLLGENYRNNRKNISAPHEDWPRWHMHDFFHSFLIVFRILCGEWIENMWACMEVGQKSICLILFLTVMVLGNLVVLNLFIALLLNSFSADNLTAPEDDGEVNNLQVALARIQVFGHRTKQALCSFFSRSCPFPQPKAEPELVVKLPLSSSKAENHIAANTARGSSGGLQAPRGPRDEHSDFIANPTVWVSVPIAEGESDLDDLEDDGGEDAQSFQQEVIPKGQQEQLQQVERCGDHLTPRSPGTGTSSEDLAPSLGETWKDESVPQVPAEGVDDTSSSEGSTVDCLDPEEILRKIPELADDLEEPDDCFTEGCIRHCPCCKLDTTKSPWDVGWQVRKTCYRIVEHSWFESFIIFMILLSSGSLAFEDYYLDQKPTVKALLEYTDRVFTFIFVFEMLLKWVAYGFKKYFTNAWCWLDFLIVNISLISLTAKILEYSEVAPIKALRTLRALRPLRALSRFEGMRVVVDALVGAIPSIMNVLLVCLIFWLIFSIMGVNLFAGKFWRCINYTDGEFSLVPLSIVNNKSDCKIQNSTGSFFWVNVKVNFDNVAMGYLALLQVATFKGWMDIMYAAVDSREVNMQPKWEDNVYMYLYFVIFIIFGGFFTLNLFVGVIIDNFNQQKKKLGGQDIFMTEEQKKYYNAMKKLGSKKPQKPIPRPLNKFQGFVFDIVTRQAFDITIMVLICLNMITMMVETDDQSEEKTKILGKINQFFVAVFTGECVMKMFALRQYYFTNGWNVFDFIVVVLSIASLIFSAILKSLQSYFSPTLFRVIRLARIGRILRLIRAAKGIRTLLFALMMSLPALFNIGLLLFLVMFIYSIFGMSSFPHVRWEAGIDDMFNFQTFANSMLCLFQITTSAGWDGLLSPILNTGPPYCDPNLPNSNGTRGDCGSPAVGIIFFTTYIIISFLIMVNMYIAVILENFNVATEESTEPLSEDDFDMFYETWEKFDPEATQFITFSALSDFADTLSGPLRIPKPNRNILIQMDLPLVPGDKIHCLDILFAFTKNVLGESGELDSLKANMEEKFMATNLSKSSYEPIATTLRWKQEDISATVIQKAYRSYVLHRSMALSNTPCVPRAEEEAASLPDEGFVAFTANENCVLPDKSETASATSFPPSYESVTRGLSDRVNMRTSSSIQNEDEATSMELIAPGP

As to `COc1c(Oc2cc(C(F)(F)F)cc(C)c2C(=O)Nc2ccnc(C(N)=O)c2)ccc(F)c1F` [Compound 189, 4-[[2-(3,4-difluoro-2-methoxy-phenoxy)-6-methyl-4-(trifluoromethyl)benzoyl]amino]pyridine-2-carboxamide], the IC50 under setting [1] amounted to 0.17 µM.

For the compound `NC(=O)c1cc(NC(=O)c2c(Oc3ccc(F)cc3Cl)ccc(C(F)(F)F)c2F)ccn1` [Compound 20, 4-[[6-(2-chloro-4-fluoro-phenoxy)-2-fluoro-3-(trifluoromethyl)benzoyl]amino]pyridine-2-carboxamide], under setting [1], the IC50 stood at 0.048 µM.

Consider `Cc1cnc(C(N)=O)cc1NC(=O)c1c(Oc2ccc(OC(F)(F)F)c(F)c2C)ccc(C(F)(F)F)c1F` [Compound 291, 4-[[2-Fluoro-6-[3-Fluoro-2-Methyl-4-(Trifluoromethoxy)Phenoxy]-3-(Trifluoromethyl)Benzoyl]Amino]-5-Methyl-Pyridine-2-Carboxamide], for which, under setting [1], the half-maximal inhibitory concentration (IC50) came out at 0.0128 µM.

Regarding `[2H]C([2H])([2H])Oc1cc(OC(F)(F)F)ccc1Oc1cc(-c2cccnc2)cc(F)c1C(=O)Nc1ccnc(C(N)=O)c1` [Compound 90, 4-[[2-fluoro-4-(3-pyridyl)-6-[2-(trideuteriomethoxy)-4-(trifluoromethoxy)phenoxy]benzoyl]amino]pyridine-2-carboxamide], under setting [1], the IC50 came out at 0.21 µM.

With `Cc1cc(Cl)cc(C)c1Oc1ccc(C(F)(F)F)c(C)c1C(=O)Nc1ccnc(C(N)=O)c1` [Compound 144, 4-[[6-(4-chloro-2,6-dimethyl-phenoxy)-2-methyl-3-(trifluoromethyl)benzoyl]amino]pyridine-2-carboxamide], the 50% inhibitory concentration (IC50) under setting [1] came out at 0.765 µM.

For the compound `COc1cc(Oc2ccc(F)cc2Cl)c(C(=O)Nc2ccnc(C(N)=O)c2)c(F)c1C(F)(F)F` [Compound 365, 4-[[6-(2-chloro-4-fluoro-phenoxy)-2-fluoro-4-methoxy-3-(trifluoromethyl)benzoyl]amino]pyridine-2-carboxamide], under setting [1], the IC50 is 0.05 µM.

`COc1cc(OC(F)(F)F)ccc1Oc1cc(C2CCC(OC)CC2)ccc1C(=O)Nc1ccnc(C(N)=O)c1` (single isomer, unassigned) [1032 (second diastereomer), 4-[[4-(4-methoxycyclohexyl)-2-[2-methoxy-4-(trifluoromethoxy)phenoxy]benzoyl]amino]pyridine-2-carboxamide]: the IC50 under setting [1] came out at 1.55 µM.

As to `COc1c(Oc2ccc(C(F)(F)F)c(C)c2C(=O)Nc2cc(C(N)=O)ncc2C)ccc(F)c1F` [Compound 180, 4-[[6-(3,4-difluoro-2-methoxy-phenoxy)-2-methyl-3-(trifluoromethyl)benzoyl]amino]-5-methyl-pyridine-2-carboxamide], the half-inhibitory concentration (IC50) under setting [1] was 0.51 µM.

As for `NC(=O)c1ccc(NC(=O)c2c(Oc3ccc(OC(F)(F)F)c(F)c3Cl)ccc(C(F)(F)F)c2F)cn1` [Compound 297, 5-[[6-[2-Chloro-3-Fluoro-4-(Trifluoromethoxy)Phenoxy]-2-Fluoro-3-(Trifluoromethyl)Benzoyl]Amino]Pyridine-2-Carboxamide], under setting [1], the half-maximal inhibitory concentration (IC50) turned out to be 0.074 µM.

Take `Cc1c(C(F)(F)F)ccc(Oc2ccc(OC(C)C)c(F)c2F)c1C(=O)Nc1ccnc(C(N)=O)c1` [Compound 121, 4-[[6-(2,3-difluoro-4-isopropoxy-phenoxy)-2-methyl-3-(trifluoromethyl)benzoyl]amino]pyridine-2-carboxamide]: the IC50 under setting [1] worked out at 0.016 µM.

Turning to `[2H]C([2H])([2H])Oc1cc(OC(F)(F)F)ccc1Oc1ccc(C(F)(F)F)c(C)c1C(=O)Nc1ccnc(C(N)=O)c1` [Compound 117], the 50% inhibitory concentration (IC50) under setting [1] amounted to 0.002 µM.

For the compound `CNC(=O)c1cc(NC(=O)c2c(Oc3ccc(OC(F)(F)F)cc3OC)cnc(C(F)(F)F)c2OC)ccn1` [Compound 273, 3-methoxy-5-[2-methoxy-4-(trifluoromethoxy)phenoxy]-N-[2-(methylcarbamoyl)-4-pyridyl]-2-(trifluoromethyl)pyridine-4-carboxamide], under setting [1], the half-maximal inhibitory concentration (IC50) came out at 0.059 µM.

On to `COc1c(Oc2cnc(C(F)(F)F)c(C)c2C(=O)Nc2ccc(C(N)=O)nc2)ccc(F)c1F` [Compound 358, N-(6-carbamoyl-3-pyridyl)-5-(3,4-difluoro-2-methoxy-phenoxy)-3-methyl-2-(trifluoromethyl)pyridine-4-carboxamide], for which, under “E-VIPR assay conducted in the absence of human serum (compounds marked *)”, the half-maximal inhibitory concentration (IC50) came to 0.075 µM.

On to `NC(=O)c1cc(NC(=O)c2ccc(C(F)(F)F)cc2Oc2cccc(C3CCCCC3)c2)ccn1` [Compound 110, 4-[[2-(3-cyclohexylphenoxy)-4-(trifluoromethyl)benzoyl]amino]pyridine-2-carboxamide], for which the concentration for half-maximal inhibition (IC50) under setting [1] is over 3 µM.

In the case of `COc1cc(OC(F)(F)F)ccc1Oc1cc(OC2C=C(F)C2)cc(C)c1C(=O)Nc1ccnc(C(N)=O)c1` (centres unmarked) [Compound 1038, 4-[[4-(3-fluorocyclobut-2-en-1-yl)oxy-2-[2-methoxy-4-(trifluoromethoxy)phenoxy]-6-methyl-benzoyl]amino]pyridine-2-carboxamide], the 50% inhibitory concentration (IC50) under setting [1] is 0.17 µM.

For the compound `Cc1cc(F)ccc1Oc1cc(C(F)(F)F)ccc1C(=O)Nc1ccnc(C(N)=O)c1` [Compound 113, 4-[[2-(4-fluoro-2-methyl-phenoxy)-4-(trifluoromethyl)benzoyl]amino]pyridine-2-carboxamide], the IC50 under setting [1] is over 3 µM.

In the case of `COc1c(C(F)(F)F)ccc(Oc2ccc(F)c3c2OCC3)c1C(=O)Nc1ccnc(C(N)=O)c1` [Compound 68, 4-[[6-[(4-fluoro-2,3-dihydrobenzofuran-7-yl)oxy]-2-methoxy-3-(trifluoromethyl)benzoyl]amino]pyridine-2-carboxamide], under setting [1], the half-inhibitory concentration (IC50) stood at 0.29 µM.

As to `NC(=O)c1cc(NC(=O)c2c(Oc3ccccc3)ccc(C(F)(F)F)c2F)ccn1` [Compound 22, 4-[[2-fluoro-6-phenoxy-3-(trifluoromethyl)benzoyl]amino]pyridine-2-carboxamide], the 50% inhibitory concentration (IC50) under setting [1] is 0.54 µM.

Turning to `COc1cc(OC(F)(F)F)ccc1Oc1ccc(C(F)(F)F)c(F)c1C(=O)Nc1cc[n+]([O-])c(C(N)=O)c1` [Compound 150, 4-[[2-fluoro-6-[2-methoxy-4-(trifluoromethoxy)phenoxy]-3-(trifluoromethyl)benzoyl]amino]-1-oxido-pyridin-1-ium-2-carboxamide], the IC50 under setting [1] is 0.002 µM.

Take `COc1cc(OC(F)(F)F)ccc1Oc1cc(C(F)(F)F)c(C)c(F)c1C(=O)Nc1ccnc(C(N)=O)c1` [Compound 278, 4-[[2-Fluoro-6-[2-Methoxy-4-(Trifluoromethoxy)Phenoxy]-3-Methyl-4-(Trifluoromethyl)Benzoyl]Amino]Pyridine-2-Carboxamide]: the IC50 under setting [1] amounted to 0.0036 µM.

`NC(=O)c1cc(NC(=O)c2cc(Cl)ccc2Oc2ccc(OC(F)(F)F)cn2)ccc1F` [Compound 256, 5-[[5-chloro-2-[[5-(trifluoromethoxy)-2-pyridyl]oxy]benzoyl]amino]-2-fluoro-benzamide]: the half-maximal inhibitory concentration (IC50) under setting [1] is over 3 µM.

Regarding `COc1cc(OC(F)(F)F)ccc1Oc1cc(Br)cc(F)c1C(=O)Nc1ccnc(C(N)=O)c1` [Compound 119, 4-[[4-bromo-2-fluoro-6-[2-methoxy-4-(trifluoromethoxy)phenoxy]benzoyl]amino]pyridine-2-carboxamide], the IC50 under setting [1] came to 0.008 µM.

`COc1cc(F)ccc1Oc1cc(C(F)(F)F)nc(C)c1C(=O)Nc1ccnc(C(N)=O)c1` [Compound 351, N-(2-carbamoyl-4-pyridyl)-4-(4-fluoro-2-methoxy-phenoxy)-2-methyl-6-(trifluoromethyl)pyridine-3-carboxamide]: under setting [1], the concentration for half-maximal inhibition (IC50) was 0.41 µM.
